According to US20250152751A1, “RED-SHIFTED FLUOROPHORES AND METHODS OF USING THE SAME” (GEORGIA STATE UNIVERSITY RESEARCH FOUNDATION, INC., priority 2022, published 2025):

Experiments:
[1] = Optical properties of the fluorophores measured in ethanol, compared to ICG; format: physicochemical; conditions: for Φ^a (%): compared to ICG
Procedure, shortened: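 Optical properties of the fluorophores were measured in ethanol and compared with a reference dye. Read-outs were absorption maximum, emission maximum, Stokes shift, quantum yield and molar extinction coefficient. The text gives no concentrations, instrument, temperature, replicates or derivation method.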

[2] = Solvatochromism: absorption maximum in different solvents; format: physicochemical

SMILES | Stokes Shift (nm) [1] [nm] | λabs (nm) [1] [nm] | λem (nm) [1] [nm] | ϵ (cm^−1 M^−1) [1] | Φ^a (%) [1] [%] | λabs (nm) Acetonitrile [2] [nm] | λabs (nm) DMSO [2] [nm] | λabs (nm) Ethanol [2] [nm] | λabs (nm) Methanol [2] [nm]
CCCCN1C(=CC=C2CCCC(C=C(C#N)C#N)=C2Cl)C(C)(C)c2cc(F)ccc21 [Compound 73] | 17 | 785 | 802 | 168,800 cm^−1 M^−1 | 12.2 | – | – | – | –
CCN1C(=CC=C2CC(c3ccccc3)CC(C=C(C#N)C(=O)O)=C2Cl)C(C)(C)c2cc(F)ccc21 (stereo not drawn) [Compound 67] | 16 | 780 | 796 | 124,700 cm^−1 M^−1 | 12.3 | – | – | – | –
CCCCN1/C(=C/C=C2\CCCC(C=C(C#N)C#N)=C2Cl)C(C)(C)c2c1ccc1ccccc21 [Compound 76] | 6 | 820 | 826 | 146,400 cm^−1 M^−1 | 8.8 | 820 | 835 | 820 | 820
CCCCN1C(=CC=C2CC(C(C)(C)C)CC(C=C(C#N)C(=O)O)=C2Cl)C(C)(C)c2c1ccc1ccccc21 (stereo not drawn) [Compound 64] | 8 | 820 | 828 | 146,300 cm^−1 M^−1 | 7.3 | – | – | – | –
CN1C(=CC=C2CC(C(C)(C)C)CC(C=C(C#N)C(=O)O)=C2Cl)C(C)(C)c2c1ccc1ccccc21 (stereo not drawn) [Compound 63] | 6 | 815 | 821 | 167,100 cm^−1 M^−1 | 9.8 | – | – | – | –
CCCCN1C(=CC=C2CC(C(C)(C)C)CC(C=C(C#N)C(=O)O)=C2Cl)C(C)(C)c2cc(F)ccc21 (stereo not drawn) [Compound 60] | 18 | 785 | 803 | 137,400 cm^−1 M^−1 | 12.6 | – | – | – | –
CCN1/C(=C/C=C2\CC(C(C)(C)C)CC(/C=C(\C#N)C(=O)O)=C2Sc2ccncc2)C(C)(C)c2cc(Cl)ccc21 (stereo not drawn) [Compound 79] | 13 | 805 | 818 | 147,300 cm^−1 M^−1 | 11.3 | 800 | 815 | 805 | 800
CCN1C(=CC=C2CCCC(C=C(C#N)C(=O)O)=C2N2CCC(CO)CC2)C(C)(C)c2ccccc21 [Compound 80] | 101 | 685 | 786 | 78,200 cm^−1 M^−1 | 16.7 | 660 | 690 | 685 | 675
CCN1C(=CC=C2CCCC(C=C(C#N)C#N)=C2Cl)C(C)(C)c2ccccc21 [Compound 71] | 17 | 780 | 797 | 144,100 cm^−1 M^−1 | 12.1 | – | – | – | –
CCN1C(=CC=C2CC(C(C)(C)C)CC(C=C(C#N)C(=O)O)=C2N2CCC(CO)CC2)C(C)(C)c2cc(Cl)ccc21 (stereo not drawn) [Compound 85] | 143 | 645 | 788 | 60,000 cm^−1 M^−1 | 19.9 | – | – | – | –
CN1C(=CC=C2CCCC(C=C(C#N)C(=O)O)=C2N2CCC(CO)CC2)C(C)(C)c2cc(Br)ccc21 [Compound 81] | 126 | 665 | 791 | 64,200 cm^−1 M^−1 | 18.3 | – | – | – | –
CCN1C(=CC=C2CC(c3ccccc3)CC(C=C(C#N)C(=O)O)=C2Cl)C(C)(C)c2cc(Br)ccc21 (stereo not drawn) [Compound 68] | 15 | 790 | 805 | 167,800 cm^−1 M^−1 | 12.1 | – | – | – | –
CCN1C(=CC=C2CC(c3ccccc3)CC(C=C(C#N)C(=O)O)=C2Cl)C(C)(C)c2cc(Cl)ccc21 (stereo not drawn) [Compound 69] | 11 | 790 | 801 | 136,500 cm^−1 M^−1 | 11.7 | – | – | – | –
CCN1C(=CC=C2CC(C(C)(C)C)CC(C=C(C#N)C(=O)O)=C2Cl)C(C)(C)c2cc(Br)ccc21 (stereo not drawn) [Compound 61] | 15 | 790 | 805 | 123,500 cm^−1 M^−1 | 11.4 | – | – | – | –
CCN1C(=CC=C2CC(C(C)(C)C)CC(C=C(C#N)C(=O)O)=C2Cl)C(C)(C)c2cc(Cl)ccc21 (stereo not drawn) [Compound 62] | 15 | 790 | 805 | 114,100 cm^−1 M^−1 | 11.5 | – | – | – | –
CCN1C(=CC=C2CCCC(C=C(C#N)C(=O)O)=C2N2CCC(CO)CC2)C(C)(C)c2cc(Cl)ccc21 [Compound 83] | 122 | 670 | 792 | 75,300 cm^−1 M^−1 | 17.4 | – | – | – | –
CCN1C(=CC=C2CCCC(C=C(C#N)C#N)=C2Cl)C(C)(C)c2cc(Cl)ccc21 [Compound 75] | 15 | 790 | 805 | 145,400 cm^−1 M^−1 | 11.5 | – | – | – | –
CCN1C(=CC=C2CC(C(C)(C)C)CC(C=C(C#N)C(=O)O)=C2Cl)C(C)(C)c2cc(F)ccc21 (stereo not drawn) [Compound 59] | 19 | 780 | 799 | 123,000 cm^−1 M^−1 | 12.5 | – | – | – | –
CCN1C(=CC=C2CC(C(C)(C)C)CC(C=C(C#N)C(=O)O)=C2Cl)C(C)(C)c2ccccc21 (stereo not drawn) [Compound 58] | 17 | 780 | 797 | 138,200 cm^−1 M^−1 | 12.7 | – | – | – | –
CCN1C(=CC=C2CC(c3ccccc3)CC(C=C(C#N)C(=O)O)=C2Cl)C(C)(C)c2ccccc21 (stereo not drawn) [Compound 66] | 15 | 780 | 795 | 155,700 cm^−1 M^−1 | 12.4 | – | – | – | –

More lines, now with the values ahead:

Stokes Shift (nm) [1] [nm] | λabs (nm) [1] [nm] | λem (nm) [1] [nm] | ϵ (cm^−1 M^−1) [1] | Φ^a (%) [1] [%] | λabs (nm) Acetonitrile [2] [nm] | λabs (nm) DMSO [2] [nm] | λabs (nm) Ethanol [2] [nm] | λabs (nm) Methanol [2] [nm] | SMILES
7 | 820 | 827 | 151,100 cm^−1 M^−1 | 9.6 | – | – | – | – | CCCCN1/C(=C/C=C2\CCCC(/C=C(\C#N)C(=O)O)=C2Cl)C(C)(C)c2c1ccc1ccccc21 [Compound 56]
15 | 785 | 800 | 143,900 cm^−1 M^−1 | 12.1 | – | – | – | – | CCCCN1C(=CC=C2CCCC(C=C(C#N)C#N)=C2Cl)C(C)(C)c2ccccc21 [Compound 72]
13 | 795 | 808 | 115,500 cm^−1 M^−1 | 11.5 | – | – | – | – | CCCCN1C(=CC=C2CCCC(C=C(C#N)C(=O)O)=C2Cl)C(C)(C)c2cc(Cl)ccc21 [Compound 55]
15 | 780 | 795 | 195,100 cm^−1 M^−1 | 12.6 | – | – | – | – | CN1C(=CC=C2CCCC(C=C(C#N)C(=O)O)=C2Cl)C(C)(C)c2cc(F)ccc21 [Compound 49]
12 | 800 | 812 | 192,000 cm^−1 M^−1 | 10.5 | – | – | – | – | CCCCN1/C(=C/C=C2\CC(C(C)(C)C)CC(/C=C(\C#N)C(=O)O)=C2Cl)Sc2ccccc21 (stereo not drawn) [Compound 65]
17 | 790 | 807 | 171,000 cm^−1 M^−1 | 11.8 | – | – | – | – | CCN1C(=CC=C2CCCC(C=C(C#N)C(=O)O)=C2Cl)C(C)(C)c2cc(Br)ccc21 [Compound 53]
14 | 800 | 814 | 198,700 cm^−1 M^−1 | 10.5 | – | – | – | – | CCCCN1/C(=C/C=C2\CCCC(/C=C(\C#N)C(=O)O)=C2Cl)Sc2ccccc21 [Compound 57]
17 | 785 | 802 | 181,400 cm^−1 M^−1 | 12.1 | – | – | – | – | CCCCN1C(=CC=C2CCCC(C=C(C#N)C(=O)O)=C2Cl)C(C)(C)c2ccccc21 [Compound 48]
14 | 780 | 799 | 165,300 cm^−1 M^−1 | 12.2 | – | – | – | – | CCN1C(=CC=C2CCCC(C=C(C#N)C(=O)O)=C2Cl)C(C)(C)c2cc(F)ccc21 [Compound 50]
17 | 785 | 802 | 176,400 cm^−1 M^−1 | 11.9 | – | – | – | – | CCCCN1C(=CC=C2CCCC(C=C(C#N)C(=O)O)=C2Cl)C(C)(C)c2cc(F)ccc21 [Compound 51]
15 | 790 | 805 | 156,500 cm^−1 M^−1 | 12.0 | – | – | – | – | CCN1C(=CC=C2CCCC(C=C(C#N)C(=O)O)=C2Cl)C(C)(C)c2cc(Cl)ccc21 [Compound 54]
20 | 780 | 800 | 179,500 cm^−1 M^−1 | 12.3 | – | – | – | – | CCN1C(=CC=C2CCCC(C=C(C#N)C(=O)O)=C2Cl)C(C)(C)c2ccccc21 [Compound 47]
16 | 790 | 806 | 153,600 cm^−1 M^−1 | 11.8 | – | – | – | – | CN1C(=CC=C2CCCC(C=C(C#N)C(=O)O)=C2Cl)C(C)(C)c2cc(Br)ccc21 [Compound 52]
